Assay results taken from patent publication US9421193B2, “Benzothiazole derivatives and a use thereof for the treatment of cancer” (Korea Institute of Radiological & Medical Sciences, priority 2014, dated 2016).

Legend:
[1] = system: non-small cell lung cancer cell strain A549; assay: Cancer cell growth inhibition, WST-1 cell viability; assay type: cell-based, human; conditions: compared among cell strains
Experimental: (§1) Cancer cell growth inhibitory effects of the compounds PB01 and PB11 of Examples 5 and 3 identified as PPAR-γ ligands were evaluated. Growth inhibitory effects of the compounds PB01 and PB11 of Examples 5 and 3 on various cancer cells, including human non-small cell lung cancer cell strains (A549, H460), breast cancer cell strains (MCF-7, T-470), colorectal cancer cell strains (LoVo, SW480), and leukocytes cancer cell strains (HL-60, K562) (American Type Culture Collection, Manassas, Va.), were evaluated using WST-1 method. About 5×10^3 cells per well of each type of cancer cell strains were portioned into a 96-well plate, and incubated with different concentrations of each of the compounds PB01 and PB11 of Examples 5 and 3 in 200 ul of a culture solution for 24 hours, 48 hours, and 72 hours. After the incubation for the different durations, 10 ul of a WST-1 solution was added to each well, followed by incubation at about 37° C. for about 1 hour. Absorbance at 450 nm was measured to determine cell viability.

[2] = system: non-small cell lung cancer cell strain H460; assay: as above; assay type: cell-based, human; conditions: compared among cell strains
Experimental: as §1

[3] = system: non-cancer lung cell strain MRC-5; assay: Cell growth inhibition in non-cancer lung cells; assay type: cell-based; conditions: MRC-5 non-cancer lung cells
[4] = system: non-cancer lung cell strain MRC-9; assay: Cell growth inhibition in non-cancer lung cells; assay type: cell-based; conditions: MRC-9 non-cancer lung cells
[5] = system: non-small cell lung cancer cell strain A549; assay: Nuclear agglutination and segmentation, Hoechst 33342 staining; assay type: cell-based, human; conditions: 50 uM, about 48 hours
Experimental: (§2) To observe typical nuclear morphological changes from cell death, the cells treated with the compounds PB01 or PB11 of Examples 5 and 3 were collected, followed by removing a supernatant. After 500 μl of a fixing solution as a 1:9 mixture of a 37% formaldehyde solution and PBS buffer solution was added into the remaining cells, thoroughly mixed together, and left at room temperature for about 10 minutes for fixation. After the fixed cells were centrifuged at about 2,000 rpm for about 5 minutes, the fixing solution was removed, and the remaining cells were floated in a PBS buffer solution. After dropping the floating cells onto a slide glass, followed by cytospinning at about 1,000 rpm for about 5 minutes to fix the floating cells onto the slide glass. The slide glass with the fixed cells was treated with 2 μg/mL of a Hoechst 33342 solution (Sigma, St. Louis, Mo., U.S.A), followed by staining at room temperature for about 20 minutes. After termination of the staining, the staining reagent was washed out, and nuclear morphological changes in the cancer cells were observed by florescent microscopy (ECLIPSE E600; Nikon, Tokyo, Japan) at a 400× magnification.

[6] = system: non-small cell lung cancer cell strain H460; assay: as above; assay type: cell-based, human; conditions: 50 uM, about 48 hours
Experimental: as §2

[7] = system: non-small cell lung cancer cells A549; assay: Sub-G1 phase cell number, propidium iodide flow cytometry; assay type: cell-based, human; conditions: 50 μM, 48 hours
Experimental: (§3) After incubation of the non-small cell lung cancer cells A549 and H460 treated with 50 μM of the compound PB01 or PB11 of Examples ?5 and 3 for 48 hours, the non-small cell lung cancer cells A549 and H460 were collected and floated with a 1×PBS (pH 7.4), followed by fixing at about −20° C. with a 70% cold ethanol, washing twice with a 1×PBS, and then staining with 10 μg/mL of propidium iodide (including 0.5% of PI, Tween-20, 100 μg/mL of 0.1% RNase) at room temperature for about 30 minutes. The stained cells were analyzed by flow cytometry with a FACScan™ (available from Becton Dicknson).

[8] = system: non-small cell lung cancer cells H460; assay: as above; assay type: cell-based, human; conditions: 50 μM, 48 hours
Experimental: as §3

[9] = system: non-small cell lung cancer cell strain H460; assay: Radiation sensitivity measurement, colony formation; assay type: cell-based, human; conditions: 14 days
Experimental: About 500 cells of non-small cell lung cancer cell strain H460 were floated on each of 60-mm cell culture plates, and then incubated for about 24 hours. After the cells were stably fixed on the bottom of the cell culture plate, the cells were treated with ciglitazone (10 μM), PB01 (10 μM), or PB11 (5 μM, 10 μM), cultured for about 24 hours, and then irradiated with γ-radiation (3.2 Gy/min, Gammacell 3000; Atomic Energy of Canada, Ltd., Mississauga, ON, Canada) at doses of 2 Gy, 4 Gy, and 6 Gy. After incubation for 14 days, followed staining using a 1% crystal violet staining reagent solution (in methanol) to selectively count colonies having a diameter of about 0.5 mm or larger. SF (surviving fraction)=number of colonies formed/number of cells seeded×plating efficiency of the control group

| SMILES | cancer cell growth inhibition [1] | cancer cell growth inhibition [2] | cell growth inhibitory effect [3] | cell growth inhibitory effect [4] | nuclear morphological changes (apoptotic bodies) [5] | nuclear morphological changes (apoptotic bodies) [6] | number of sub-G1 phase cells [7] | number of sub-G1 phase cells [8] | effect as radiation sensitizer ([9]; 10 μM in combination with radiation at a dose of 4 Gy) | effect as radiation sensitizer ([9]; 5 μM in combination with radiation at a dose of 4 Gy) |
| --- | --- | --- | --- | --- | --- | --- | --- | --- | --- | --- |
| COC1CCC(C(=O)Nc2ccc3nc(SCc4c(C)noc4C)sc3c2)CC1 (centres unmarked) [PB01] | most effective | most effective | nearly zero | nearly zero | increased apoptotic bodies due to nuclear agglutination | increased apoptotic bodies due to nuclear agglutination | sharp increase | sharp increase | significant effect as radiation sensitizers | – |
| Cc1noc(C)c1CSc1nc2ccc(NC(=O)C3CCC(=O)CC3)cc2s1 [PB11] | – | – | – | – | increased apoptotic bodies due to nuclear agglutination | increased apoptotic bodies due to nuclear agglutination | sharp increase | sharp increase | – | significant effect as radiation sensitizers |
